For this assay, the system named is sclerostin mRNA in MLO-Y4 cells. Put plainly: Sclerostin mRNA in MLO-Y4 cells, qRT-PCR. It is filed as cell-based, mouse. The conditions noted are these: MLO-Y4, inhibitor pre-treatment 10 minutes, irisin 16 hours. The procedure: Cells were stained with Hoechst 33342 and Eth-D1, and analyzed to determine the percentage of cell death. *: p<0.05, ***: p<0.001 vs 0.3 mM H2O2 treated condition. […] MLO-Y4 cells were seeded and incubated until 60% cell density. The cells were incubated with Freestyle293 medium for 4 hours and were treated with indicated concentrations of irisin for 16 hours. Sclerostin mRNA level was analyzed by qRT-PCR. Cyclophilin was used as a control house-keeping gene.
MLO-Y4 cells were incubated in serum free medium for 3 hours followed by treatment of indicated concentrations of irisin for indicated time (FIG. 6A), or followed by treatment of 0 or 10 nM irisin in the presence of indicated integrin inhibitors or their control peptide for 16 hours (FIG. 6B). Sclerostin mRNA level was analyzed by qPCR.
Certain materials and methods were used to generate the results described herein. For example, the data shown in FIG. 1A resulted from MLO-Y4 (an osteocyte-like cell line) cells treated with the indicated concentration of irisin and hydrogen peroxide for 4 hours. Cells were stained with Hoechst 33342 (ThermoFisher Scientific, catalog number H3570) and Eth-D1 (ThermoFisher Scientific, catalog number E1169) and analyzed to determine the percentage of cell death using ImageJ. The data shown in FIG. 2D resulted from MLO-Y4 incubated in serum free medium (FreeStyle™ 293 expression medium, ThermoFisher Scientific, catalog number 12338018) for 4 hours followed by treatment of indicated concentrations of irisin for 10 minutes. Cells were lysed to detect the indicated protein level using immunoblot analysis (Cell Signaling Technology, catalog numbers 3283S, 3285S, 8467S, 3553S, 9198S, and 9104S; Abcam, catalog number ab49900-100ul). The data shown in FIG. 3 resulted from 3T3-F442A cells incubated in serum free medium for 4 hours followed by treatment of indicated concentrations of irisin for 10 minutes. Cells were lysed by RIPA buffer to detect the indicated protein level using immunoblot analysis. The data shown in FIG. 4 were generated from 100 nM flag-tagged irisin (Enzo life sciences, catalog number ADI-908-307-3010) incubated with 5 nM of the indicated 6 his-tag integrins (R & D Systems Inc., catalog numbers 7064-AB-025, 5668-A4-050, 5438-A9-050, 6357-AB-050, and 6579-AV-025) in the presence of RGDS peptide (R & D Systems Inc., catalog number 3498/10) or its control peptide (Enzo Life Sciences, catalog Number BML-P701-0005) followed by immunoprecipitation using 6 his-tag beads (ThermoFisher Scientific, catalog number R901-01). Co-precipitated irisin was analyzed by immunoblot analysis against flag tag (Sigma Aldrich, catalog number A8592). The data shown in FIGS. 5A and 5B were generated from MLO-Y4 cells treated and analyzed as in the experiments used to generate the data shown in FIG. 2D, except that pre-treatment of 100 nM RGDS (FIG. 5A) or echistatin (R & D Systems Inc., catalog number 3202/100U) (FIG. 5B) for 10 minutes was performed before irisin treatment. The data shown in FIGS. 6A and 6B were generated from MLO-Y4 cells incubated in serum free medium for 3 hours followed by treatment of indicated time of 10 nM irisin for 16 hours. RNAs were extracted from the cells and the sclerostin mRNA level was analyzed by qPCR (FIG. 6A) or treated and analyzed as in (FIG. 6A), except that pre-treatment of 10 μM RGDS, RGDyK (Selleck, catalog number S7844), or echistatin was performed for 10 minutes before irisin treatment. […] Sclerostin mRNA level was analyzed by qPCR (FIG. 7A). […]
For orientation: Real-time PCR tracks product formation cycle by cycle.

This note sets out measurements from patent publication US20210063414A1, “METHODS FOR PREVENTING AND/OR TREATING BONE LOSS CONDITIONS BY MODULATING IRISIN” (Dana-Farber Cancer Institute, Inc., priority 2018, published 2021).

With `N=C(N)NCCC[C@@H]1NC(=O)[C@H](CCCCN)NC(=O)[C@@H](Cc2ccc(O)cc2)NC(=O)[C@H](CC(=O)O)NC(=O)CNC1=O` [cyclo RGDyK], the “effect of integrin inhibitor on irisin-induced sclerostin mRNA” value (shortened to “effect of integrin inhibitor”) is listed as “prevented sclerostin induction”. Also, the “effect of integrin inhibitor” value (listed as RGDyK circular peptide) is “sensitive”.

Turning to “RGDS peptide: classical integrin competitive inhibitory peptide, commercially available form of the RGD peptide”, the “effect of integrin inhibitor” value is on record as “sensitive”. Under “listed as RGD peptide”, the “effect of integrin inhibitor” value is listed as “prevented sclerostin induction”.
